Experimental data taken from US20260199484A1, “PROTAC DEGRADERS OF MLLT1 AND/OR MLLT3” (DARK BLUE THERAPEUTICS LTD, priority 2024, published 2026).

Tests used:
MV4-11 cells = test: MV4-11 cellular proliferative assay, Assay Format A (CellTiter-Glo, 120 h); assay type: cell-based; conditions: Homo sapiens, Assay format A, 120 h, read-out: IC50 (MV4-11 cellular proliferative assay)
Experimental: An MV4-11 proliferation assay was used to test the ability of compounds to reduce cell viability. MV4-11 cells (ATCC #CRL9591) were grown in IMDM medium (11510596, Gibco) supplemented with 10% fetal bovine serum (F7524, Gibco) and 1% Penicillin/Streptomycin (15140-122, Gibco) at 37° C. with 5% CO2. Cells were seeded in 384-well Elplasia plates (4447, Corning) at a density of 50 cells/well and treated with vehicle (DMSO) or compounds (10 serial semi-log dilutions, 30 μM as top concentration).
After 120 hours of treatment, cells were incubated for 10 min at RT with the CellTiter-Glo (CTG) reagent (G7571, Promega). Measurement of the luminescence signal was performed on a microplate reader (Ensight, PerkinElmer). CTG reagent measures the amount of ATP, which is directly proportional to the number of cells, to determine the number of viable cells in culture.
The data were analysed as follows:
[formula] • where x is the measured raw signal value of a well, (cr) is the median of the measured signal values for the Central Reference (DMSO) wells on a plate, (sr) is the median of the measured signal values for the Scale Reference (reference compound) wells on a plate.
[formula] • where the experimental set-up assumes the Hill parameters in certain ranges: S0~Central Reference (CR) from normalization (=Bottom), Sinf~Scale Reference (SR) from normalization (=Top), nHill ~1, AC50~within the measured concentration range.

MLLT1 = biological target: T1, MLLT1 (Homo sapiens, UniProt Q03111); test: MLLT1 degradation assay in MV4-11 cells (JESS, 24 h); assay type: cell-based; design: endogenous in cells; host or cells: MV4-11 (ATCC CRL-9591); conditions: vs DMSO control
T1 sequence (Q03111 1-559): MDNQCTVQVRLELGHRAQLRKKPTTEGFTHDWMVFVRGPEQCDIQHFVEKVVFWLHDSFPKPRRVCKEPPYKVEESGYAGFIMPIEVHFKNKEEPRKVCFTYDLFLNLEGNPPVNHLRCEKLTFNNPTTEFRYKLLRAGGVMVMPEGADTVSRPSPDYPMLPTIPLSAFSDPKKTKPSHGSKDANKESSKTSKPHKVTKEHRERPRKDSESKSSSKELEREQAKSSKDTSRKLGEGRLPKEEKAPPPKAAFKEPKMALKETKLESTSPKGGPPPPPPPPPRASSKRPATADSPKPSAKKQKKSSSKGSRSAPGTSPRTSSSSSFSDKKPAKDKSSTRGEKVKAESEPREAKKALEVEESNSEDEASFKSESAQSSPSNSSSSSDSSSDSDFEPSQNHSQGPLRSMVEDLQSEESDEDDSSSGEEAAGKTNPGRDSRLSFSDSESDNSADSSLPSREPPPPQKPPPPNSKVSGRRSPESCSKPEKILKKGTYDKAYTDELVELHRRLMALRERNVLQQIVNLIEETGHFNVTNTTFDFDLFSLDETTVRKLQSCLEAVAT
Experimental: MLLT1 degradation efficacy of compounds was tested in an automated chemiluminescent detection system (JESS, Cat #004-650). MV4-11 (#CRL-9591, ATCC) cells were seeded at a density of 1.2 million cells/well in a non-treated 6-well cell culture plate in 2.4 mL of complete medium (IMDM+10% FBS+1× Penicillin-Streptomycin). 10 mM DMSO stocks were prepared, and cells were treated with three concentrations of test compounds viz. 1000, 100 and 10 nM at a final DMSO concentration of 0.1% and incubated for 24 h at 37° C., 5% CO2. Post incubation, cells were centrifuged, washed with HBSS and lysed in 70 μL of RIPA buffer supplemented with Protease inhibitors (sc-24948; Santa Cruz). Subsequently, protein estimation was done using BCA protein assay kit (23225; Pierce). 4 ug protein lysate (4 uL of 1 ug/uL lysate) was loaded into each well of the JESS cartridge (SM-W001; Bio-techne) and the JESS run was performed using 1:900 dilution of anti-human MLLT1 antibody (14893; Cell signaling technology) and 1:1200 dilution of anti-human GAPDH antibody (2118; Cell signaling technology) with anti-rabbit secondary detection module (DM-001; Bio-Techne). Post run, data were analysed using “Compass for SW” software for chemiluminescent detection. The peak area for each band was used for the calculation of MLLT1 degradation with respect to DMSO control. Data is shown as “MLLT1% degradation”. • Category A: A≥75% degradation • Category B: 50%≤B<75% degradation • Category C: 25%≤C<50% degradation • Category D: D<25% degradation

| IC50 (MV4-11 cells) | MLLT1% Degradation @ 0.01 μM (MLLT1) | MLLT1% Degradation @ 0.1 μM (MLLT1) | MLLT1% Degradation @ 1 μM (MLLT1) | SMILES |
| --- | --- | --- | --- | --- |
| < 0.1 µM | A (Category A: A≥75% degradation) | A (Category A: A≥75% degradation) | A (Category A: A≥75% degradation) | Cc1nn(CCCCCCC#Cc2cccc3c2CN(C2CCC(=O)NC2=O)C3=O)c2cc(C(=O)Nc3cc4[nH]c([C@H]5CCCN5C)cc4cn3)ccc12 (stereo partly drawn) [Example 45, 1-(8-(2-(2,6-dioxopiperidin-3-yl)-1-oxoisoindolin-4-yl)oct-7-yn-1-yl)-3-methyl-N-(2-((R)-1-methylpyrrolidin-2-yl)-1H-pyrrolo[3,2-c]pyridin-6-yl)-1H-indazole-6-carboxamide] |
| < 0.1 µM | A (Category A: A≥75% degradation) | A (Category A: A≥75% degradation) | B (Category B: 50%≤B<75% degradation) | Cc1nn(CCCCC#Cc2cccc3c2CN(C2CCC(=O)NC2=O)C3=O)c2cc(C(=O)Nc3cc4[nH]c([C@H]5CCCN5C)cc4cn3)ccc12 (stereo partly drawn) [Example 46, 1-(6-(2-(2,6-dioxopiperidin-3-yl)-1-oxoisoindolin-4-yl)hex-5-yn-1-yl)-3-methyl-N-(2-((R)-1-methylpyrrolidin-2-yl)-1H-pyrrolo[3,2-c]pyridin-6-yl)-1H-indazole-6-carboxamide] |
| < 0.1 µM | – | – | – | Cc1nn(CCCNc2cccc3c2C(=O)N(C2CCC(=O)NC2=O)C3=O)c2cc(C(=O)Nc3cc4[nH]c([C@H]5CCCN5C)cc4cn3)ccc12 (stereo partly drawn) [Example 13, 1-(3-((2-(2,6-dioxopiperidin-3-yl)-1,3-dioxoisoindolin-4-yl)amino)propyl)-3-methyl-N-(2-((R)-1-methylpyrrolidin-2-yl)-1H-pyrrolo[3,2-c]pyridin-6-yl)-1H-indazole-6-carboxamide] |
| < 0.1 µM | – | – | – | Cc1nn(CCCCCCCCOc2ccc3c(c2)C(=O)N(C2CCC(=O)NC2=O)C3=O)c2cc(C(=O)Nc3cc4[nH]c([C@H]5CCCN5C)cc4cn3)ccc12 (stereo partly drawn) [Example 8, 1-(8-{[2-(2,6-dioxopiperidin-3-yl)-1,3-dioxoisoindol-5-yl]oxy}octyl)-3-methyl-N-{2-[(2R)-1-methylpyrrolidin-2-yl]-1H-pyrrolo[3,2-c]pyridin-6-yl}indazole-6-carboxamide] |
| < 0.1 µM | – | – | – | Cc1nn(C2CCN(CCCNc3cccc4c3C(=O)N(C3CCC(=O)NC3=O)C4=O)CC2)c2cc(C(=O)Nc3cc4[nH]c([C@H]5CCCN5C)cc4cn3)ccc12 (stereo partly drawn) [Example 7, 1-[1-(3-{[2-(2,6-dioxopiperidin-3-yl)-1,3-dioxoisoindol-4-yl]amino}propyl)piperidin-4-yl]-3-methyl-N-{2-[(2R)-1-methylpyrrolidin-2-yl]-1H-pyrrolo[3,2-c]pyridin-6-yl}indazole-6-carboxamide] |
| < 0.1 µM | – | – | – | Cc1nn(CCCCN2CCN(c3ccc4c(c3)C(=O)N(C3CCC(=O)NC3=O)C4=O)CC2)c2cc(C(=O)Nc3cc4[nH]c([C@H]5CCCN5C)cc4cn3)ccc12 (stereo partly drawn) [Example 19, 1-(4-{4-[2-(2,6-dioxopiperidin-3-yl)-1,3-dioxoisoindol-5-yl]piperazin-1-yl}butyl)-3-methyl-N-{2-[(2R)-1-methylpyrrolidin-2-yl]-1H-pyrrolo[3,2-c]pyridin-6-yl}indazole-6-carboxamide] |
| < 0.1 µM | – | – | – | Cc1nn(CCCCCCCCNc2ccc3c(c2)C(=O)N(C2CCC(=O)NC2=O)C3=O)c2cc(C(=O)Nc3cc4[nH]c([C@H]5CCCN5C)cc4cn3)ccc12 (stereo partly drawn) [Example 14, 1-(8-{[2-(2,6-dioxopiperidin-3-yl)-1,3-dioxoisoindol-5-yl]amino}octyl)-3-methyl-N-{2-[(2R)-1-methylpyrrolidin-2-yl]-1H-pyrrolo[3,2-c]pyridin-6-yl}indazole-6-carboxamide] |
| – | – | B (Category B: 50%≤B<75% degradation) | A (Category A: A≥75% degradation) | Cc1nn(CCOCCN2CCN(c3cc4c(cc3F)C(=O)N(C3CCC(=O)NC3=O)C4=O)CC2)c2cc(C(=O)Nc3cc4[nH]c([C@H]5CCCN5C)cc4cn3)ccc12 (stereo partly drawn) [Example 24, 1-(2-(2-(4-(2-(2,6-dioxopiperidin-3-yl)-6-fluoro-1,3-dioxoisoindolin-5-yl)piperazin-1-yl)ethoxy)ethyl)-3-methyl-N-(2-((R)-1-methylpyrrolidin-2-yl)-1H-pyrrolo[3,2-c]pyridin-6-yl)-1H-indazole-6-carboxamide] |
| < 0.1 µM | – | – | – | Cc1nn(CCCCCCCCOc2cccc3c2C(=O)N(C2CCC(=O)NC2=O)C3=O)c2cc(C(=O)Nc3cc4[nH]c([C@H]5CCCN5C)cc4cn3)ccc12 (stereo partly drawn) [Example 12, 1-(8-((2-(2,6-dioxopiperidin-3-yl)-1,3-dioxoisoindolin-4-yl)oxy)octyl)-3-methyl-N-(2-((R)-1-methylpyrrolidin-2-yl)-1H-pyrrolo[3,2-c]pyridin-6-yl)-1H-indazole-6-carboxamide] |
| – | C (Category C: 25%≤C<50% degradation) | B (Category B: 50%≤B<75% degradation) | A (Category A: A≥75% degradation) | Cc1nn(CCCCCCCC#Cc2cc3c(cc2F)c(N2CCC(=O)NC2=O)nn3C)c2cc(C(=O)Nc3cc4[nH]c([C@H]5CCCN5C)cc4cn3)ccc12 [Example 65, (R)-1-(9-(3-(2,4-dioxotetrahydropyrimidin-1 (2H)-yl)-5-fluoro-1-methyl-1H-indazol-6-yl)non-8-yn-1-yl)-3-methyl-N-(2-(1-methylpyrrolidin-2-yl)-1H-pyrrolo[3,2-c]pyridin-6-yl)-1H-indazole-6-carboxamide] |
| – | A (Category A: A≥75% degradation) | A (Category A: A≥75% degradation) | A (Category A: A≥75% degradation) | Cc1nn(CCCCCCCC#Cc2cccc3c2CN(C2CCC(=O)NC2=O)C3=O)c2cc(C(=O)Nc3cc4[nH]c([C@H]5CC6(CC6)CN5C)cc4cn3)ccc12 (stereo in doubt) [Example 56, 1-(9-(2-(2,6-dioxopiperidin-3-yl)-1-oxoisoindolin-4-yl)non-8-yn-1-yl)-3-methyl-N-(2-((rel-R)-5-methyl-5-azaspiro[2.4]heptan-6-yl)-1H-pyrrolo[3,2-c]pyridin-6-yl)-1H-indazole-6-carboxamide] |
| < 0.1 µM | – | – | – | Cc1nn(CCCCCCCCNc2cccc3c2CN(C2CCC(=O)NC2=O)C3=O)c2cc(C(=O)Nc3cc4[nH]c([C@@H]5CCCN5C)cc4cn3)ccc12 (stereo partly drawn) [Example 17, 1-(8-{[2-(2,6-dioxopiperidin-3-yl)-1-oxo-3H-isoindol-4-yl]amino}octyl)-3-methyl-N-{2-[(2S)-1-methylpyrrolidin-2-yl]-1H-pyrrolo[3,2-c]pyridin-6-yl}indazole-6-carboxamide] |
